{
  "source": "paper PMC8100446",
  "about": "“Perillaldehyde Inhibition of cGAS Reduces dsDNA-Induced Interferon Response” (Frontiers in Immunology, 2021)",
  "target": "T1, cyclic GMP-AMP synthase (cGAS) (Homo sapiens, UniProt Q8N884)",
  "T1 construct": "purified recombinant full-length cGAS",
  "T1 sequence (Q8N884 whole entry)": "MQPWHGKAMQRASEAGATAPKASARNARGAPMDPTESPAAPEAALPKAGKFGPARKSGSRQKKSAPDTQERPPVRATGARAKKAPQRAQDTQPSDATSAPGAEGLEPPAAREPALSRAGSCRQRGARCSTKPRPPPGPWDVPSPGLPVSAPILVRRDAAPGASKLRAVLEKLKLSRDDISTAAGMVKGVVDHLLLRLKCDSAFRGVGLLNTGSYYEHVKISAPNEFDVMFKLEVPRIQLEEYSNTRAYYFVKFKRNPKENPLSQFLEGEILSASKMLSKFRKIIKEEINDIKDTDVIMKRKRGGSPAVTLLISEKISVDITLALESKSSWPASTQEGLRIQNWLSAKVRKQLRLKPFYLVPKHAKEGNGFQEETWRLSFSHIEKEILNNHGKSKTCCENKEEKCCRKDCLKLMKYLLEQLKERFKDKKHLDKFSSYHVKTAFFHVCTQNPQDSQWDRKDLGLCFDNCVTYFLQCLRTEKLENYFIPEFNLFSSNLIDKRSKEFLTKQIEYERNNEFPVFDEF",
  "experiment": "in vitro cGAS enzymatic assay, cGAMP production measured by HPLC-MS",
  "assay_type": "biochemical",
  "data": [
    {"molecule": "C=C(C)C1CC=C(C=O)CC1", "note": "(stereo not shown) [PAH, perillaldehyde]", "values": [
      {"measurement": "IC50", "value": 31.3, "unit": "µM"}
    ]}
  ]
}
